Columns and labels:
[1] = tested on: MATIN; assay: Herbicidal post-emergence action 1b (twin sowing, 1280 g/ha); format: in vivo, Matricaria inodora; settings: dosage 1280 g/ha, visual rating about 3 weeks after treatment
Summary of the method: (§1)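 Compounds formulated as WP or EC were applied with 0.5% additive in 600 L/ha water onto one-leaf-stage weeds, each pot sown with one monocot and one dicot species in sandy loam. After roughly 3 weeks in the greenhouse, visual percent activity was scored against untreated plants.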

[2] = tested on: VERPE; assay: Herbicidal post-emergence action 1a (greenhouse pots, visual rating); format: in vivo, Veronica persica; settings: dosage 320 g/ha, visual rating about 3 weeks after treatment
Summary of the method: (§2)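 Visual scoring versus untreated plants (100% = plants dead, 0% = as control) followed roughly 3 weeks in the greenhouse after treatment. Plants grown in sandy loam pots had been sprayed on green parts at the one-leaf stage, 2–3 weeks post-sowing, with aqueous WP/EC preparations containing 0.5% additive, 600 l/ha, at 320 and/or 80 g/ha.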

[3] = tested on: VIOTR; assay: as above; format: in vivo, Viola tricolor; settings: dosage 320 g/ha, visual rating about 3 weeks after treatment
Summary of the method: as §2

[4] = tested on: AMARE; assay: Herbicidal pre-emergence action 2b (doubly sown, 1280 g/ha); format: in vivo, Amaranthus retroflexus; settings: doubly sown pots, dosage 1280 g/ha, visual scoring after about 3 weeks
Summary of the method: (§3)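 Visual % scores against untreated plants (0% = like control, 100% = dead) were taken roughly 3 weeks after treatment in the greenhouse. Compounds, as WP or EC with 0.5% additive, were applied in 600 l/ha water onto covering soil over seeds of paired mono-/dicot weeds in sandy loam.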

[5] = tested on: POLCO; assay: Herbicidal post-emergence action 1a (greenhouse pots, visual rating); format: in vivo, Polygonum convolvulus; settings: visual rating about 3 weeks after treatment
Summary of the method: as §2

[6] = tested on: POLCO; assay: Herbicidal pre-emergence action 2a (greenhouse pots, visual scoring); format: in vivo, Polygonum convolvulus; settings: dosage 320 g/ha, visual scoring after about 3 weeks vs untreated controls
Summary of the method: (§4)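 The soil covering sown seeds is treated with an aqueous suspension or emulsion of wettable powder or emulsion concentrate (0.5% additive, 600 l/ha), corresponding to 320 g/ha and/or 80 g/ha. After about 3 weeks of greenhouse growth, damage is scored visually as a percentage.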

[7] = tested on: ECHCG; assay: Herbicidal pre-emergence action 2b (doubly sown, 1280 g/ha); format: in vivo, Echinochloa crus-galli; settings: doubly sown pots, dosage 1280 g/ha, visual scoring after about 3 weeks
Summary of the method: as §3

[8] = tested on: PHBPU; assay: Herbicidal post-emergence action 1a (greenhouse pots, visual rating); format: in vivo, Pharbitis purpurea; settings: visual rating about 3 weeks after treatment
Summary of the method: as §2

[9] = tested on: STEME; assay: Herbicidal pre-emergence action 2b (doubly sown, 1280 g/ha); format: in vivo, Stellaria media; settings: doubly sown pots, dosage 1280 g/ha, visual scoring after about 3 weeks
Summary of the method: as §3

[10] = tested on: STEME; assay: Herbicidal post-emergence action 1b (twin sowing, 1280 g/ha); format: in vivo, Stellaria media; settings: dosage 1280 g/ha, visual rating about 3 weeks after treatment
Summary of the method: as §1

[11] = tested on: MATIN; assay: Herbicidal pre-emergence action 2b (doubly sown, 1280 g/ha); format: in vivo, Matricaria inodora; settings: doubly sown pots, dosage 1280 g/ha, visual scoring after about 3 weeks
Summary of the method: as §3

[12] = tested on: POAAN; assay: Herbicidal post-emergence action 1b (twin sowing, 1280 g/ha); format: in vivo, Poa annua; settings: dosage 1280 g/ha, visual rating about 3 weeks after treatment
Summary of the method: as §1

[13] = tested on: AMARE; assay: Herbicidal post-emergence action 1a (greenhouse pots, visual rating); format: in vivo, Amaranthus retroflexus; settings: visual rating about 3 weeks after treatment
Summary of the method: as §2

[14] = tested on: LOLRI; assay: Herbicidal pre-emergence action 2a (greenhouse pots, visual scoring); format: in vivo, Lolium rigidum; settings: dosage 320 g/ha, visual scoring after about 3 weeks vs untreated controls
Summary of the method: as §4

[15] = tested on: MATIN; assay: Herbicidal post-emergence action 1a (greenhouse pots, visual rating); format: in vivo, Matricaria inodora; settings: visual rating about 3 weeks after treatment
Summary of the method: as §2

[16] = tested on: STEME; assay: as above; format: in vivo, Stellaria media; settings: Dosage 320 g/ha; rated visually about 3 weeks after treatment; 100% = plants have died, 0% = like control plants
Experimental: [table] a) Seeds of monocotyledonous and dicotyledonous weeds and crop plants are placed in sandy loam in plastic or organic plant pots, covered with soil and cultivated in a greenhouse under controlled growth conditions. 2 to 3 weeks after sowing, the test plants are treated at the one-leaf stage. The compounds of the invention, formulated in the form of wettable powders (WP) or as emulsion concentrates (EC), are then sprayed onto the green parts of the plants as aqueous suspension or emulsion with addition of 0.5% additive at a water application rate of 600 1/ha (converted). After the test plants have been kept in the greenhouse under optimum growth conditions for about 3 weeks, the activity of the preparations is rated visually in comparison to untreated controls. For example, 100% activity=the plants have died, 0% activity=like control plants. Tables A1 to A15 below show the effects of selected compounds of the general formula (I) according to Tables 1 and 2 on various harmful plants and an application rate corresponding to 320 g/ha and/or 80 g/ha, which were obtained by the experimental procedure mentioned above.

[17] = tested on: DIGSA; assay: Herbicidal pre-emergence action 2a (greenhouse pots, visual scoring); format: in vivo, Digitaria sanguinalis; settings: dosage 320 g/ha, visual scoring after about 3 weeks
Summary of the method: as §4

[18] = tested on: MATIN; assay: as above; format: in vivo, Matricaria inodora; settings: dosage 320 g/ha, visual scoring after about 3 weeks vs untreated controls
Summary of the method: as §4

[19] = tested on: LOLRI; assay: Herbicidal post-emergence action 1a (greenhouse pots, visual rating); format: in vivo, Lolium rigidum; settings: Dosage 320 g/ha; rated visually about 3 weeks after treatment; 100% = plants have died, 0% = like control plants
Summary of the method: as §2

[20] = tested on: STEME; assay: Herbicidal pre-emergence action 2a (greenhouse pots, visual scoring); format: in vivo, Stellaria media; settings: dosage 320 g/ha, visual scoring after about 3 weeks vs untreated controls
Text: [table] a) Seeds of monocotyledonous and dicotyledonous weed plants and crop plants are placed in plastic or organic plant pots and covered with soil. The compounds of the invention, formulated in the form of wettable powders (WP) or as emulsion concentrates (EC), are then applied onto the surface of the covering soil as aqueous suspension or emulsion with addition of 0.5% additive at a water application rate of 600 1/ha (converted). After the treatment, the pots are placed in a greenhouse and kept under good growth conditions for the trial plants. After about 3 weeks, the effect of the preparations is scored visually in comparison with untreated controls as percentages. For example, 100% activity=the plants have died, 0% activity=like control plants. Tables B1 to B15 below show the effects of selected compounds of the general formula (I) according to Tables 1 and 2 on various harmful plants and an application rate corresponding to 320 g/ha and/or 80 g/ha, which were obtained by the experimental procedure mentioned above.

[21] = tested on: ALOMY; assay: as above; format: in vivo, Alopecurus myosuroides; settings: dosage 320 g/ha, visual scoring after about 3 weeks
Summary of the method: as §4

[22] = tested on: ALOMY; assay: Herbicidal post-emergence action 1a (greenhouse pots, visual rating); format: in vivo, Alopecurus myosuroides; settings: Dosage 320 g/ha; rated visually about 3 weeks after treatment; 100% = plants have died, 0% = like control plants
Summary of the method: as §2

[23] = tested on: POAAN; assay: Herbicidal pre-emergence action 2b (doubly sown, 1280 g/ha); format: in vivo, Poa annua; settings: doubly sown pots, dosage 1280 g/ha, visual scoring after about 3 weeks
Summary of the method: as §3

[24] = tested on: AMARE; assay: Herbicidal pre-emergence action 2a (greenhouse pots, visual scoring); format: in vivo, Amaranthus retroflexus; settings: dosage 320 g/ha, visual scoring after about 3 weeks vs untreated controls
Summary of the method: as §4

[25] = tested on: VERPE; assay: as above; format: in vivo, Veronica persica; settings: dosage 320 g/ha, visual scoring after about 3 weeks vs untreated controls
Summary of the method: as §4

## O=C(O)COc1nn(-c2cnccn2)c(-c2cccc(F)c2)c1Br [Example I-04]
[1]
  Post-emergence action at 1280 g/ha against MATIN in %: 90%
[2]
  Post-emergence action against VERPE in %: 80%
[3]
  Post-emergence action against VIOTR in %: 80%
[4]
  Pre-emergence action at 1280 g/ha against AMARE in %: 100%
[5]; dosage 80 g/ha
  Post-emergence action against POLCO in %: 80%
[5]; dosage 320 g/ha
  Post-emergence action against POLCO in %: 90%
[6]
  Pre-emergence action against POLCO in %: 90%
[7]
  Pre-emergence action at 1280 g/ha against ECHCG in %: 100%
[8]; dosage 80 g/ha
  Post-emergence action against PHBPU in %: 80%
[8]; dosage 320 g/ha
  Post-emergence action against PHBPU in %: 80%
[9]
  Pre-emergence action at 1280 g/ha against STEME in %: 100%
[10]
  Post-emergence action at 1280 g/ha against STEME in %: 100%
[11]
  Pre-emergence action at 1280 g/ha against MATIN in %: 100%
[12]
  Post-emergence action at 1280 g/ha against POAAN in %: 90%
[13]; dosage 80 g/ha
  Post-emergence action against AMARE in %: 90%
[13]; dosage 320 g/ha
  Post-emergence action against AMARE in %: 90%
[14]
  Pre-emergence action against LOLRI in %: 90%
[15]; dosage 80 g/ha
  Post-emergence action against MATIN in %: 80%
[15]; dosage 320 g/ha
  Post-emergence action against MATIN in %: 90%
[16]
  Post-emergence action against STEME in %: 80%
[17]
  Pre-emergence action against DIGSA in %: 90%
[18]
  Pre-emergence action against MATIN in %: 90%
[19]
  Post-emergence action against LOLRI in %: 80%
[20]
  Pre-emergence action against STEME in %: 90%
[21]
  Pre-emergence action against ALOMY in %: 80%
[22]
  Post-emergence action against ALOMY in %: 90%
[23]
  Pre-emergence action at 1280 g/ha against POAAN in %: 100%
[24]
  Pre-emergence action against AMARE in %: 100%
[25]
  Pre-emergence action against VERPE in %: 90%

— US20230167088A1, “1-PYRAZINYLPYRAZOLYL-3-OXYALKYL ACIDS AND THEIR DERIVATIVES, AND THEIR USE FOR CONTROL OF UNDESIRED PLANT GROWTH” (BAYER AKTIENGESELLSCHAFT, priority 2020, published 2023)
